Test results from ChEMBL document CHEMBL1154644 (J Med Chem, 2009).
pIC50: −log10 of the molar value. Blank lines part the entries; values can stand above or below the molecule they belong to. The source made the active and inactive calls. No cut-off for these calls is given here.

Legend:
[1] = molecular target: T1, Serine/threonine-protein kinase mTOR (Homo sapiens, UniProt P42345); experiment: Inhibition of human mTOR by DELFIA assay; format: single protein
[2] = Clearance in rat hepatocyte assessed as half life; format: ADME, cell-based, Liver; details: hepatocytes
[3] = Selectivity for human mTOR over PI3Kalpha
[4] = molecular target: Phosphatidylinositol 4,5-bisphosphate 3-kinase catalytic subunit alpha isoform (Homo sapiens, UniProt P42336); experiment: Inhibition of PI3Kalpha by fluorescence polarization assay
Phosphatidylinositol 4,5-bisphosphate 3-kinase catalytic subunit alpha isoform, sequence (P42336 whole entry, canonical isoform): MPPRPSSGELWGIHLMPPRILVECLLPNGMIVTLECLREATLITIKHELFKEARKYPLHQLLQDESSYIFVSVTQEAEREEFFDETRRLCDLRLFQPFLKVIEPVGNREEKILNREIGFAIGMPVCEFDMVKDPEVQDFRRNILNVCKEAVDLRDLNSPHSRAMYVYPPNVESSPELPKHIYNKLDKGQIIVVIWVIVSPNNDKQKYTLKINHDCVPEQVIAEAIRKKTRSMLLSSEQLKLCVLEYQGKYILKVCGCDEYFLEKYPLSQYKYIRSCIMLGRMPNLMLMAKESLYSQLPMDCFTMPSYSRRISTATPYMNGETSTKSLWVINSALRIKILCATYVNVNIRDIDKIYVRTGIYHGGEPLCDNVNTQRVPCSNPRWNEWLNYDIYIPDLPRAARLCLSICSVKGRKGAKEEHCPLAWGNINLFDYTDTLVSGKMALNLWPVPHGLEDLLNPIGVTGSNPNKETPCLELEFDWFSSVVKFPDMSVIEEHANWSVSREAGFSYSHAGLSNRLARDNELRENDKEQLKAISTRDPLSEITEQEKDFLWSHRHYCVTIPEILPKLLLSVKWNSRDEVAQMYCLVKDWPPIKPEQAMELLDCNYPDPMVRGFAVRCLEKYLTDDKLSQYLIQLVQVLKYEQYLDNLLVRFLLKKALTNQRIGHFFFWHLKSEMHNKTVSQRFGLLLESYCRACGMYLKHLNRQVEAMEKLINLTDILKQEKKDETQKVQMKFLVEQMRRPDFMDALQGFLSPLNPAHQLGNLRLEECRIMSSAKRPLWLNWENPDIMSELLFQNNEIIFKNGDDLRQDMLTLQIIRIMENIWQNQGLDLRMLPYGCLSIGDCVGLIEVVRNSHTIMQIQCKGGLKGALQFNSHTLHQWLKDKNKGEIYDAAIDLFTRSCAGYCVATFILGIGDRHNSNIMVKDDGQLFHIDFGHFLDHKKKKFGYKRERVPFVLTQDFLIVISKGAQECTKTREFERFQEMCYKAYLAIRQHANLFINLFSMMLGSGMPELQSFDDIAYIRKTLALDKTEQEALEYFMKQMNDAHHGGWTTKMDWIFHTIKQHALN

[5] = molecular target: T1, Serine/threonine-protein kinase mTOR; experiment: Inhibition of mTOR-mediated signaling in human A498 cells assessed as inhibition of phosphorylation of S6K1(T389) measured after 6 hrs by immunoblotting; format: cell-based
[6] = molecular target: T1, Serine/threonine-protein kinase mTOR; experiment: Inhibition of mTOR-mediated signaling in human A498 cells assessed as inhibition of phosphorylation of 4EBP1 (T70) measured after 6 hrs by immunoblotting; format: cell-based
[7] = molecular target: T1, Serine/threonine-protein kinase mTOR; experiment: Inhibition of mTOR-mediated signaling in human A498 cells assessed as inhibition of phosphorylation of 4EBP1 (T37/46) measured after 6 hrs by immunoblotting; format: cell-based
[8] = molecular target: T1, Serine/threonine-protein kinase mTOR; experiment: Inhibition of mTOR-mediated signaling in human A498 cells assessed as inhibition of mTORC2 biomarker measured after 6 hrs by immunoblotting; format: cell-based
[9] = molecular target: T1, Serine/threonine-protein kinase mTOR; experiment: Inhibition of mTOR-mediated signaling in PTEN-negative, PI3K/AKT-hyperactive human U87MG cells assessed as inhibition of phosphorylation of S6K1(T389) measured after 6 hrs by immunoblotting; format: cell-based; details: U-87MG ATCC
[10] = molecular target: T1, Serine/threonine-protein kinase mTOR; experiment: Inhibition of mTOR-mediated signaling in PTEN-negative, PI3K/AKT-hyperactive human U87MG cells assessed as inhibition of phosphorylation of AKT(S473) measured after 6 hrs by immunoblotting; format: cell-based; details: U-87MG ATCC
[11] = molecular target: T1, Serine/threonine-protein kinase mTOR; experiment: Inhibition of mTOR-mediated signaling in PTEN-negative, PI3K/AKT-hyperactive human U87MG cells assessed as inhibition of phosphorylation of AKT(T308) measured after 6 hrs by immunoblotting; format: cell-based; details: U-87MG ATCC
[12] = molecular target: T1, Serine/threonine-protein kinase mTOR; experiment: Inhibition of mTOR-mediated signaling in PTEN-negative, PI3K/AKT-hyperactive human U87MG cells assessed as inhibition of PI3K/PDK1 measured after 6 hrs by immunoblotting; format: cell-based; details: U-87MG ATCC
[13] = molecular target: Dual specificity protein kinase CLK1 (Homo sapiens) (UniProt P49759); experiment: Inhibition of CLK1 at 2 uM
Dual specificity protein kinase CLK1 (Homo sapiens), sequence (P49759 whole entry, looked up): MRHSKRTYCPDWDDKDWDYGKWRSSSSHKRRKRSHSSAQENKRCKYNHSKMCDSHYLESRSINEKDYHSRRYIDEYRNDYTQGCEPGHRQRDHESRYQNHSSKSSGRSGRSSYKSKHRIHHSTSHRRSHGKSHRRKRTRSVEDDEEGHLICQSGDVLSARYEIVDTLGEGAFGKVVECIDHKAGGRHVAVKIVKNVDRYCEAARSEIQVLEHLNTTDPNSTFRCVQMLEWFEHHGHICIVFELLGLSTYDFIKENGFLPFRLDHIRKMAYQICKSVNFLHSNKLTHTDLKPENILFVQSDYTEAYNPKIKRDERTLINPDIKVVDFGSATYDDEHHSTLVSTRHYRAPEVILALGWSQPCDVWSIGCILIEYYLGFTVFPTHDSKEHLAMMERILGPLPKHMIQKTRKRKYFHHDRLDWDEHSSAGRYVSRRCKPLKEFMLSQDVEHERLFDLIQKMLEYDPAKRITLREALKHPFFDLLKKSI

[14] = molecular target: Serine/threonine-protein kinase 25 (Homo sapiens) (UniProt O00506); experiment: Inhibition of STK25 at 2 uM
Serine/threonine-protein kinase 25 (Homo sapiens), sequence (O00506 whole entry, looked up): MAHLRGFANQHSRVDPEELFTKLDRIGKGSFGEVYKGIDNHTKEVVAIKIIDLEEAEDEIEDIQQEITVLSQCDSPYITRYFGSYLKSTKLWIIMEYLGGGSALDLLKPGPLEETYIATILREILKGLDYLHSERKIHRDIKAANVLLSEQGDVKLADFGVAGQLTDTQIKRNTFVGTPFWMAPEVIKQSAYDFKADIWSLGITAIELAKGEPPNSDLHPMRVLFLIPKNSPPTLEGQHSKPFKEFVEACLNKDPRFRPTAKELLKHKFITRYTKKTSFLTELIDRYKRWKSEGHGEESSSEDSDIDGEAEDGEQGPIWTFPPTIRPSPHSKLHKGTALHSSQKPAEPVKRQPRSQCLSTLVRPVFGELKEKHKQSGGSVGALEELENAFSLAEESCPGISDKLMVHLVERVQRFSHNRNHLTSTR

[15] = molecular target: Tyrosine-protein kinase JAK2 (Homo sapiens) (UniProt O60674); experiment: Inhibition of JAK2 at 2 uM
[16] = Inhibition of AMPK at 2 uM
[17] = molecular target: Serine/threonine-protein kinase PAK 2 (Homo sapiens) (UniProt Q13177); experiment: Inhibition of PAK2 at 2 uM
Serine/threonine-protein kinase PAK 2 (Homo sapiens), sequence (Q13177 whole entry): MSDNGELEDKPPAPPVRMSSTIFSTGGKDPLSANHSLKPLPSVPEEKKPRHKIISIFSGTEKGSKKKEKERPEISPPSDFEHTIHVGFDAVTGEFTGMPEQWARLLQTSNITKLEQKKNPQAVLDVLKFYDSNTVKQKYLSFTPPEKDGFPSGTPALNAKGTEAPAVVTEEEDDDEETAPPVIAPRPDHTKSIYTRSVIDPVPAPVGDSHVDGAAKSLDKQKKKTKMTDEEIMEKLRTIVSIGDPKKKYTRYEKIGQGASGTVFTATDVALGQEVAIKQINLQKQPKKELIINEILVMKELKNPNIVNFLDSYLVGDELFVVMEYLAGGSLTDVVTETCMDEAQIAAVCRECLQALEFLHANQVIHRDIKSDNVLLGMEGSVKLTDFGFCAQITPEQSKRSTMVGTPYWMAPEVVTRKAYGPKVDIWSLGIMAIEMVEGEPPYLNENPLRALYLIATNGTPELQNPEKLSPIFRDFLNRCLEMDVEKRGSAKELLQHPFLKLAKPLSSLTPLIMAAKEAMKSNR

[18] = molecular target: Tyrosine-protein kinase CSK (Homo sapiens) (UniProt P41240); experiment: Inhibition of CSK at 2 uM
Tyrosine-protein kinase CSK (Homo sapiens), sequence (P41240 2-450 limits assumed): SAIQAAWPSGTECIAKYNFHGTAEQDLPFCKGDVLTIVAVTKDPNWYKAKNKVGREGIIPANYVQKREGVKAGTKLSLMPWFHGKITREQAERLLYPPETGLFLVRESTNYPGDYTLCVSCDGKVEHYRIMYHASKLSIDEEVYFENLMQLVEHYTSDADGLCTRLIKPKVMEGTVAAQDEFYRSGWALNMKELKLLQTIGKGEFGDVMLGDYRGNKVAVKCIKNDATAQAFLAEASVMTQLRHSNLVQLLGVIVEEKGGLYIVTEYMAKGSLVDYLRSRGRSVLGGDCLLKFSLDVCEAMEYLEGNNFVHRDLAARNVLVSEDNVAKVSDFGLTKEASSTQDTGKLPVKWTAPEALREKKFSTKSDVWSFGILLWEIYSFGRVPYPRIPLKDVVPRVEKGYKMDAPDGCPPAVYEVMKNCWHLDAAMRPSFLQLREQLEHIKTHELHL

[19] = molecular target: Fibroblast growth factor receptor 1 (Homo sapiens) (UniProt P11362); experiment: Inhibition of FGFR1 at 2 uM
[20] = molecular target: Serine/threonine-protein kinase 26 (Homo sapiens) (UniProt Q9P289); experiment: Inhibition of MST4 at 2 uM
[21] = molecular target: Angiopoietin-1 receptor (Homo sapiens) (UniProt Q02763); experiment: Inhibition of TEK at 2 uM
Angiopoietin-1 receptor (Homo sapiens), sequence (Q02763 whole entry): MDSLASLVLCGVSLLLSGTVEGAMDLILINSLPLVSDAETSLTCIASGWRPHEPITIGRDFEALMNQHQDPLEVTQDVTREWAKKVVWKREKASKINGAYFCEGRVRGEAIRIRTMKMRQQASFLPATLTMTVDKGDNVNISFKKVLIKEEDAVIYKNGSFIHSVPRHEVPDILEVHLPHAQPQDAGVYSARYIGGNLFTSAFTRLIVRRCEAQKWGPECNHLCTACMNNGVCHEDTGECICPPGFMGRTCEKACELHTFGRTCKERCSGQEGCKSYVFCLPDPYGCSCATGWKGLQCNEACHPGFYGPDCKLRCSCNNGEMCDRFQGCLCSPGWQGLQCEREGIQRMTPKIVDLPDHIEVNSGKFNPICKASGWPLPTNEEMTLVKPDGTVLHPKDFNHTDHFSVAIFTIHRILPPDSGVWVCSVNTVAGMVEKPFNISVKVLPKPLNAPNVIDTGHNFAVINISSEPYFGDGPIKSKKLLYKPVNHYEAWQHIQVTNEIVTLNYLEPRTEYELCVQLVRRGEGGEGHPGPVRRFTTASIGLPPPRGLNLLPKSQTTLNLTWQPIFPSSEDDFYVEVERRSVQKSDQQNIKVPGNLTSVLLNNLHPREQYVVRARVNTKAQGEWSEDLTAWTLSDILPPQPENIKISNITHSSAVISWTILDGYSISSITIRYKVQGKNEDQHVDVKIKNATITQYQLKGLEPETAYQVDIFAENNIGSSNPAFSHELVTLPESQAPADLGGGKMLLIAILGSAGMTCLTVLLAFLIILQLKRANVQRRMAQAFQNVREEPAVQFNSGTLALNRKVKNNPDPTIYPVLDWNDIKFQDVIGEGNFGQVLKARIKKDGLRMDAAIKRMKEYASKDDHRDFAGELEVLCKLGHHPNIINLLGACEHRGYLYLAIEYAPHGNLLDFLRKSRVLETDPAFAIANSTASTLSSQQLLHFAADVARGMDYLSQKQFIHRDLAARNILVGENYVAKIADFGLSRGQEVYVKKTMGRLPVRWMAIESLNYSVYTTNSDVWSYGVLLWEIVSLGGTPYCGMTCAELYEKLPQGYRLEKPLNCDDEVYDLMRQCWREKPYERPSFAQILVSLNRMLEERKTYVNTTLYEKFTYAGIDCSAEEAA

[22] = molecular target: BDNF/NT-3 growth factors receptor (Homo sapiens) (UniProt Q16620); experiment: Inhibition of NTRK2 at 2 uM
[23] = molecular target: Serine/threonine-protein kinase PAK 5 (Homo sapiens) (UniProt Q9P286); experiment: Inhibition of PAK7 at 2 uM
[24] = molecular target: T2, Serine/threonine-protein kinase Sgk3 (Homo sapiens) (UniProt Q96BR1); experiment: Inhibition of SGKL at 2 uM
T2 sequence (whole entry): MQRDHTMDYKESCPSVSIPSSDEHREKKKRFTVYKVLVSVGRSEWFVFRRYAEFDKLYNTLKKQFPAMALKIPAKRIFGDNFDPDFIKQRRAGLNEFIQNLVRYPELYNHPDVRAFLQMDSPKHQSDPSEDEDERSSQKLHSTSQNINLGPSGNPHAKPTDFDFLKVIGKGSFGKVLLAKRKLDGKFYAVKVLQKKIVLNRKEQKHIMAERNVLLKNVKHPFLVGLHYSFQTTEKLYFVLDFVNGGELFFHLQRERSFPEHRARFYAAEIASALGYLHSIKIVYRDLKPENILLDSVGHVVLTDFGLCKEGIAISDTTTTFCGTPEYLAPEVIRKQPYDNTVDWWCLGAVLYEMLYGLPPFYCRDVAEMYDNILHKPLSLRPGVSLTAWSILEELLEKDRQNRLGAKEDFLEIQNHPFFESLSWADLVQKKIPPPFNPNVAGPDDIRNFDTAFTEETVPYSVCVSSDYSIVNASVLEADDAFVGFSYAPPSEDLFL

[25] = molecular target: T1, Serine/threonine-protein kinase mTOR; experiment: Inhibition of human mTOR assessed as ATP competitive inhibition by Lineweaver-Burke double reciprocal dose-response plot
[26] = molecular target: Serine/threonine-protein kinase D3 (PRKD3/PKCν) (Homo sapiens) (UniProt O94806); experiment: Inhibition of PRKCN at 2 uM
Serine/threonine-protein kinase D3 (PRKD3/PKCν) (Homo sapiens), sequence (O94806 whole entry, looked up): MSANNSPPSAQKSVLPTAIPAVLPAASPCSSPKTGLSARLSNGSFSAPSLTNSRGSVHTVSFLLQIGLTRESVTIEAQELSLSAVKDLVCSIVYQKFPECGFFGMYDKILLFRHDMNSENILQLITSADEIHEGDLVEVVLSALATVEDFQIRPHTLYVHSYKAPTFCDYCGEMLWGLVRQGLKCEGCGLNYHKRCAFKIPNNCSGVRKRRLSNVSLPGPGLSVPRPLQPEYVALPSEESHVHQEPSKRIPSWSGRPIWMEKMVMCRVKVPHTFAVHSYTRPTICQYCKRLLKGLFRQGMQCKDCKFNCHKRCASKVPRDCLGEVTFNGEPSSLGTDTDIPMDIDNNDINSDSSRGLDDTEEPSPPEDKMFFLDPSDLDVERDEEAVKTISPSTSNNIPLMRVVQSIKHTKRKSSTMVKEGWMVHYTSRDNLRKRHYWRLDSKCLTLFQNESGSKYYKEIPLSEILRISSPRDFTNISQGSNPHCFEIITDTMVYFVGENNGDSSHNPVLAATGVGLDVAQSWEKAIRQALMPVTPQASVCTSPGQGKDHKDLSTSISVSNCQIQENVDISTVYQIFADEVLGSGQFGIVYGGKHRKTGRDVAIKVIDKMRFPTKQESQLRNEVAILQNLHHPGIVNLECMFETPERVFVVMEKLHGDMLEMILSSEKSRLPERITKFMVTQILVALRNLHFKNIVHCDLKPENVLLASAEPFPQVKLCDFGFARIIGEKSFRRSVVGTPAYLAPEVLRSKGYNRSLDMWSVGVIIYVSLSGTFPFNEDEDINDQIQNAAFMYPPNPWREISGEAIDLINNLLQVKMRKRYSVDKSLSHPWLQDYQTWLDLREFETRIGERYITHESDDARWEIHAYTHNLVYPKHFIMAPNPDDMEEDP

[27] = molecular target: T1, Serine/threonine-protein kinase mTOR; experiment: Inhibition of mTOR-mediated signaling in human A498 cells assessed as inhibition of phosphorylation of AKT (S473) measured after 6 hrs by immunoblotting

SMILES: c1ccc(CN2CCC(n3ncc4c(N5CCOCC5)nc(-c5cccnc5)nc43)CC2)cc1
pIC50 [1]: 6.16

SMILES: Oc1cccc(-c2nc(N3CCOCC3)c3cnn(C4CCN(Cc5ccccc5)CC4)c3n2)c1
half-life [2]: 13 min
fold change (FC) [3]: > 10
pIC50 [1]: 7.11

SMILES: c1ccc(CN2CCC(n3ncc4c(N5CCOCC5)nc(-c5cccc6cc[nH]c56)nc43)CC2)cc1
pIC50 [1]: 6.42

SMILES: O=C(c1cccnc1)N1CCC(n2ncc3c(N4CCOCC4)nc(-c4cccc(O)c4)nc32)CC1
fold change (FC) [3]: > 10
pIC50 [1]: 8.22
pIC50 [4]: 7.07

SMILES: O=C(c1ccccc1)N1CCC(n2ncc3c(N4CCOCC4)nc(-c4cccc(O)c4)nc32)CC1
pIC50 [1]: 8.40
pIC50 [4]: 7.30

SMILES: O=C(c1cccnc1)N1CCC(n2ncc3c(N4CCOCC4)nc(-c4ccc5[nH]ccc5c4)nc32)CC1
pIC50 [1]: 8.40
pIC50 [4]: 5.23

SMILES: c1ccc(CN2CCC(n3ncc4c(N5CCOCC5)nc(-c5ccncc5)nc43)CC2)cc1
pIC50 [1]: 5.14

SMILES: Oc1ccc(-c2nc(N3CCOCC3)c3cnn(C4CCN(Cc5ccccc5)CC4)c3n2)cc1
pIC50 [1]: 6.77

SMILES: Oc1cccc(-c2nc(N3CCOCC3)c3cnn(C4CCN(Cc5cccnc5)CC4)c3n2)c1
pIC50 [1]: 8.00

SMILES: CO[C@H]1C[C@@H]2CC[C@@H](C)[C@@](O)(O2)C(=O)C(=O)N2CCCC[C@H]2C(=O)O[C@H]([C@H](C)C[C@@H]2CC[C@@H](O)[C@H](OC)C2)CC(=O)[C@H](C)/C=C(\C)[C@@H](O)[C@@H](OC)C(=O)[C@H](C)C[C@H](C)/C=C/C=C/C=C/1C
Activity [5]: Active
Activity [6]: Active
Activity [7]: inactive
Activity [27]: inactive

SMILES: CC(=O)N1CCC(n2ncc3c(N4CCOCC4)nc(-c4cccc(O)c4)nc32)CC1
pIC50 [1]: 7.31

SMILES: Oc1ccccc1-c1nc(N2CCOCC2)c2cnn(C3CCN(Cc4ccccc4)CC3)c2n1
pIC50 [1]: 5.90

The remaining molecules from weak to strong by pIC50 [1], led by results:

pIC50 [1]: 5.23
SMILES: c1ccc(CN2CCC(n3ncc4c(N5CCOCC5)nc(-c5ccc6ncccc6c5)nc43)CC2)cc1

pIC50 [1]: 6.64
SMILES: c1ccc(CN2CCC(n3ncc4c(N5CCOCC5)nc(-c5ccc6cc[nH]c6c5)nc43)CC2)cc1

pIC50 [1]: 6.67
SMILES: Oc1cccc(-c2nc(N3CCOCC3)c3cnn(C4CCNCC4)c3n2)c1

fold change (FC) [3]: > 20
pIC50 [1]: 6.72
SMILES: O=c1[nH]c2ccc(-c3nc(N4CCOCC4)c4cnn(C5CCN(Cc6ccccc6)CC5)c4n3)cc2[nH]1

pIC50 [1]: 6.77
SMILES: c1cc2cc(-c3nc(N4CCOCC4)c4cnn(C5CCNCC5)c4n3)ccc2[nH]1

pIC50 [1]: 6.84
SMILES: c1ccc(CN2CCC(n3ncc4c(N5CCOCC5)nc(-c5cccc6[nH]ccc56)nc43)CC2)cc1

pIC50 [1]: 6.89
SMILES: c1ccc(CN2CCC(n3ncc4c(N5CCOCC5)nc(-c5cc6ccccc6[nH]5)nc43)CC2)cc1

pIC50 [1]: 6.92
SMILES: c1ccc(CN2CCC(n3ncc4c(N5CCOCC5)nc(-c5cnc6ccccc6c5)nc43)CC2)cc1

pIC50 [1]: 7.06
SMILES: c1ccc(CN2CCC(n3ncc4c(N5CCOCC5)nc(-c5ccc6[nH]ccc6c5)nc43)CC2)cc1

Activity [5]: Dose-dependent effect
Activity [6]: Dose-dependent effect
Activity [7]: Dose-dependent effect
Activity [8]: Dose-dependent effect
Activity [9]: Active
Activity [10]: Active
Activity [11]: inactive
Activity [12]: inactive
inhibition [13]: 50%
inhibition [14]: 50%
inhibition [15]: 50%
inhibition [16]: 50%
inhibition [17]: 50%
inhibition [18]: 50%
inhibition [19]: 50%
inhibition [20]: 50%
inhibition [21]: 50%
inhibition [22]: 50%
inhibition [23]: 50%
inhibition [24]: 50%
Activity [25]: Active
pIC50 [1]: 8.05
inhibition [26]: 50%
Activity [27]: Dose-dependent effect
SMILES: c1cncc(CN2CCC(n3ncc4c(N5CCOCC5)nc(-c5ccc6[nH]ccc6c5)nc43)CC2)c1
